# Reference: publication PMC7897990, “TriTOX: A novel Trichomonas vaginalis assay platform for high-throughput screening of compound libraries” (International Journal for Parasitology: Drugs and Drug …, 2021)
# Read-outs that look alike come from different tables or passages of the source.
# Columns and labels:
# [1] = tested on: Trichomonas vaginalis G3 trophozoites; test: microbe, parasite or virus in culture; details: 48 h
# [2] = tested on: nontumorigenic neonatal foreskin fibroblast (NFF) cell line
# [3] = read-out: T.vaginalis_%inb_Rep1
# [4] = read-out: T.vaginalis_%inb_Rep2
# [5] = NFF fibroblasts, single concentration 5 µg/mL
# [6] = NFF fibroblast screen at 5 µg/mL, A = active, I = inactive
SMILES,"inhibition of growth at 1 µg/mL [1, 3] [%]","inhibition of growth at 1 µg/mL [1, 4] [%]","NFF_Activity [2, 5]",NFF_Activity [2],"NFF_Activity [2, 6]"
C[C@H]1C(=O)O[C@@H]2CCN3CC=C(COC(=O)[C@](C)(O)[C@]1(C)O)[C@H]23 [Monocrotaline],8.98,13.2,I (otherwise these were reported as inactive (I)),,
CO/N=C1\C[C@]2(C[C@@H]3C[C@@H](C/C=C(\C)C[C@@H](C)/C=C/C=C4\CO[C@@H]5[C@H](O)C(C)=C[C@@H](C(=O)O3)[C@]45O)O2)O[C@H](/C(C)=C/C(C)C)[C@H]1C [Moxidectin],9.23,6.09,I (otherwise these were reported as inactive (I)),,
CCCCCCC(=O)CCCCCC/C=C/C[C@@H](O)[C@H](O)[C@@](N)(CO)C(=O)O [Myriocin],10.9,15.1,I (otherwise these were reported as inactive (I)),,
C[C@@H]1C[C@H]2CC[C@H](O2)[C@H](C)C(=O)O[C@@H](C)C[C@@H]2CC[C@@H](O2)[C@@H](C)C(=O)O[C@H](C)C[C@H]2CC[C@H](O2)[C@H](C)C(=O)O[C@@H](C)C[C@@H]2CC[C@@H](O2)[C@@H](C)C(=O)O1 [Nonactin],11.6,12.1,,I (key: active (A) compounds having >25% inhibitory activity; otherwise these were reported as inactive (I)),
Cn1c2ccccc2c(=O)c2c(O)cc3c(c21)C=CC(C)(C)O3 [Noracronycine],8.76,12.6,I (otherwise these were reported as inactive (I)),,
Cc1cc(O)c(C=O)c2c1C(=O)Oc1c(C)c(O)c3c(c1O2)C(O)OC3=O (stereo not drawn) [Norstictic acid],13.7,12.1,I (otherwise these were reported as inactive (I)),,
C=C(NC(=O)c1csc(-c2nc3c(cc2O)-c2nc(cs2)C(=O)NC(C(C)O)C(=O)N/C(=C\C)c2nc(cs2)C(=O)NC2CC(O)C(=O)OCc4cccc5[nH]c(c(C)c45)C(=O)SCC(NC(=O)c4csc2n4)c2nc-3cs2)n1)C(N)=O (stereo not drawn) [Nosiheptide],2.89,6.03,I (otherwise these were reported as inactive (I)),,
C[C@@H]1Cc2c(Cl)cc(C(=O)N[C@@H](Cc3ccccc3)C(=O)O)c(O)c2C(=O)O1 [Ochratoxin A],13,11.6,I (otherwise these were reported as inactive (I)),,
CC[C@@H]1C=CC=CC[C@H](C)[C@@H](O)[C@@H](C)C(=O)[C@H](C)[C@@H](O)[C@H](C)C(=O)[C@H](C)[C@@H](O)[C@H](C)C=CC(=O)O[C@H]2[C@@H](C)[C@@H](CC1)O[C@@]1(CC[C@@H](C)[C@@H](C[C@H](C)O)O1)[C@@H]2C [Oligomycin C],11.3,12.9,I (otherwise these were reported as inactive (I)),,
CC(C)=C[C@H]1C[C@H](C)[C@]2(CC[C@]3(C)C[C@H]4[C@H](C(=O)C[C@@]4(C)O)/C(C=O)=C\C[C@H]32)O1 [Ophiobolin A],14.2,13,A (active (A) compounds having >25% inhibitory activity),,
CC(C)=CCC[C@H](C)[C@H]1CC[C@]2(C)C[C@H]3[C@H](C(=O)C[C@@]3(C)O)/C(C=O)=C\C[C@@H]12 [Ophiobolin C],13.1,12.7,A (active (A) compounds having >25% inhibitory activity),,
O=C1Cc2ccccc2N1 [Oxindole],12.2,14.4,I (otherwise these were reported as inactive (I)),,
CN1C(=O)[C@]23C[C@@H]4C(C)(C)[C@@]5(C[C@@]41CN2CC[C@@]3(C)O)C(=O)Nc1c5ccc2c1OC=CC(C)(C)O2 [Paraherquamide A],15.8,15.5,I (otherwise these were reported as inactive (I)),,
CC(C)(O)[C@H]1O[C@H]2CC[C@@]3(C)[C@@](O)(CC[C@H]4Cc5c([nH]c6ccccc56)[C@@]43C)C2=CC1=O [Paxilline],10.1,13.3,I (otherwise these were reported as inactive (I)),,
O=C(O)c1c(-c2ccc[nH]2)[nH]c2ccccc2c1=O [Penicinoline],13.9,11,I (otherwise these were reported as inactive (I)),,
C=C(C)[C@@H]1NC(=O)[C@@H](NC)[C@@H](O)c2cc(Cl)c(O)c(c2)O[C@](C)(CC)[C@@H](C(=O)N2CC=C[C@H]2C(=O)N/C(C(=O)N/C(=C/C(=O)O)C(=O)O)=C(\C)CC)NC1=O [Phomopsin A],11.7,11,I (otherwise these were reported as inactive (I)),,

SMILES,"inhibition of growth at 1 µg/mL [1, 3] [%]","inhibition of growth at 1 µg/mL [1, 4] [%]","NFF_Activity [2, 5]",NFF_Activity [2],"NFF_Activity [2, 6]"
C/C=C(\C)[C@H](O)[C@H](C)/C=C(C)/C=C/C/C(C)=C/Cc1nc(OC)c(OC)c(O)c1C [Piericidin A],11.3,4.17,I (otherwise these were reported as inactive (I)),,
C=C1C[C@@]23C=CC(=O)[C@@](C)(CCC(=O)Nc4c(O)ccc(C(=O)O)c4O)[C@@H]2C[C@@H]1CC3 [Platencin],11.3,10.7,I (otherwise these were reported as inactive (I)),,
CC12C[C@@]34C=CC(=O)[C@@](C)(CCC(=O)Nc5c(O)ccc(C(=O)O)c5O)C3[C@H](CC1C4)O2 (stereo partly drawn) [Platensimycin],11.3,10,I (otherwise these were reported as inactive (I)),,
C=C[C@]1(C)C[C@@H](OC(=O)CO)[C@]2(C)[C@H](C)CC[C@]3(CCC(=O)[C@H]32)[C@@H](C)[C@@H]1O [Pleuromutilin],10.1,11.7,I (otherwise these were reported as inactive (I)),,
CC1(C)CCC[C@]2(C)[C@@H](C=O)C(C=O)=CC[C@@H]12 [Polygodial],13.1,13.9,A (active (A) compounds having >25% inhibitory activity),,
CCCCCC1=C/C(=C/c2[nH]c(-c3ccc[nH]3)cc2OC)N=C1C [Prodigiosin],9.63,1.73,I (otherwise these were reported as inactive (I)),,
CC/C=C\[C@H](O)[C@H](O)C1=C(C)C(=O)[C@]2(O1)C(=O)N[C@@](OC)(C(=O)c1ccccc1)[C@@H]2O [Pseurotin A],11.5,11.5,I (otherwise these were reported as inactive (I)),,
COc1cc(C(=O)O)c2c(c1C)OC(=O)c1c(C)cc(O)c(C=O)c1O2 [Psoromic acid],13.9,10.4,I (otherwise these were reported as inactive (I)),,
CN(C)c1ncnc2c1ncn2[C@@H]1O[C@H](CO)[C@@H](N)[C@H]1O [Puromycin aminonucleoside],15.7,13,I (otherwise these were reported as inactive (I)),,
O=C(c1cc(Cl)c(Cl)[nH]1)c1c(O)cccc1O [Pyoluteorin],6.82,7.19,I (otherwise these were reported as inactive (I)),,
CC1(C)C[C@]23[C@@H]4COC(=O)[C@H]2CC[C@H]1[C@@H]3CC4=O [Quadrone],11.6,11.6,A (active (A) compounds having >25% inhibitory activity),,
C=C(NC(=O)C(=C)NC(=O)c1csc(C2=N[C@@H]3c4csc(n4)[C@H]4NC(=O)c5csc(n5)[C@H]([C@](C)(O)[C@@H](C)O)NC(=O)[C@H]5CSC(=N5)/C(=C/C)NC(=O)[C@H]([C@@H](C)O)NC(=O)c5csc(n5)[C@]3(CC2)NC(=O)[C@H](C)NC(=O)C(=C)NC(=O)[C@H](C)NC(=O)[C@H]([C@@H](C)CC)N[C@@H]2C=Cc3c([C@H](C)O)cc(nc3[C@H]2O)C(=O)O[C@@H]4C)n1)C(N)=O [Thiostrepton],9.91,14.3,,,I (otherwise these were reported as inactive (I))
C=C[C@]1(C)C[C@@H](OC(=O)CSCCN(CC)CC)[C@]2(C)[C@H](C)CC[C@]3(CCC(=O)[C@H]32)[C@@H](C)[C@@H]1O [Tiamulin],12.6,13.9,,,I (otherwise these were reported as inactive (I))
CC[C@H]1OC(=O)C[C@@H](O)[C@H](C)[C@@H](O[C@@H]2O[C@H](C)[C@@H](O)[C@H](N(C)C)[C@H]2O)[C@@H](CCN2C[C@H](C)C[C@H](C)C2)C[C@@H](C)C(=O)/C=C/C(C)=C/[C@@H]1CO[C@@H]1O[C@H](C)[C@@H](O)[C@@H](OC)[C@H]1OC [Tilmicosin],2.41,4.94,,,I (otherwise these were reported as inactive (I))
CC(C)[C@@H]1NC(=O)[C@H](C)OC(=O)[C@@H](C(C)C)NC(=O)[C@@H](C(C)C)OC(=O)[C@H](C(C)C)NC(=O)[C@H](C)OC(=O)[C@@H](C(C)C)NC(=O)[C@@H](C(C)C)OC(=O)[C@H](C(C)C)NC(=O)[C@H](C)OC(=O)[C@@H](C(C)C)NC(=O)[C@@H](C(C)C)OC1=O [Valinomycin],9.18,12.2,,,I (otherwise these were reported as inactive (I))
